Earlier results in paper PMC5560747, “Computational-experimental approach to drug-target interaction mapping: A case study on kinase inhibitors” (PLoS Computational Biology, 2017).

Columns and labels:
Design in all cases: method as in Gao et al. [42]
[1] = test system: PIM3; conditions: ref Gao et al. [42], cited from earlier work
[2] = test system: MKNK2 (MNK2); conditions: ref Gao et al. [42], cited from earlier work
[3] = test system: ROCK2; conditions: ref Gao et al. [42], cited from earlier work
[4] = test system: PKN2; conditions: ref Gao et al. [42], cited from earlier work
[5] = test system: TAOK1; conditions: ref Gao et al. [42], cited from earlier work
[6] = test system: ALK; conditions: ref Gao et al. [42], cited from earlier work
[7] = test system: PLK1; conditions: ref Gao et al. [42]; cited from earlier work
[8] = test system: IRAK4; conditions: ref Gao et al. [42], cited from earlier work
[9] = molecular target: BRK (Homo sapiens, UniProt Q13882); conditions: ref Gao et al. [42], cited from earlier work
[10] = test system: PIM1; conditions: ref Gao et al. [42], cited from earlier work
[11] = test system: MAPKAPK5; conditions: ref Gao et al. [42], cited from earlier work
[12] = molecular target: SYK (Homo sapiens, UniProt P43405); conditions: ref Gao et al. [42]; cited from earlier work
[13] = test system: CSNK1G3; conditions: ref Gao et al. [42], cited from earlier work
[14] = test system: ROS1; conditions: ref Gao et al. [42], cited from earlier work
[15] = test system: PKCg; conditions: ref Gao et al. [42], cited from earlier work
[16] = test system: MAPK13; conditions: ref Gao et al. [42], cited from earlier work
[17] = test system: GSK3A; conditions: ref Gao et al. [42], cited from earlier work
[18] = molecular target: IGF1R (Homo sapiens, UniProt P08069); conditions: ref Gao et al. [42]; cited from earlier work
[19] = test system: AKT1; conditions: ref Gao et al. [42], cited from earlier work
[20] = molecular target: T1, AXL (Homo sapiens, UniProt P30530); conditions: ref Gao et al. [42], cited from earlier work
T1 sequence (P30530 26-894): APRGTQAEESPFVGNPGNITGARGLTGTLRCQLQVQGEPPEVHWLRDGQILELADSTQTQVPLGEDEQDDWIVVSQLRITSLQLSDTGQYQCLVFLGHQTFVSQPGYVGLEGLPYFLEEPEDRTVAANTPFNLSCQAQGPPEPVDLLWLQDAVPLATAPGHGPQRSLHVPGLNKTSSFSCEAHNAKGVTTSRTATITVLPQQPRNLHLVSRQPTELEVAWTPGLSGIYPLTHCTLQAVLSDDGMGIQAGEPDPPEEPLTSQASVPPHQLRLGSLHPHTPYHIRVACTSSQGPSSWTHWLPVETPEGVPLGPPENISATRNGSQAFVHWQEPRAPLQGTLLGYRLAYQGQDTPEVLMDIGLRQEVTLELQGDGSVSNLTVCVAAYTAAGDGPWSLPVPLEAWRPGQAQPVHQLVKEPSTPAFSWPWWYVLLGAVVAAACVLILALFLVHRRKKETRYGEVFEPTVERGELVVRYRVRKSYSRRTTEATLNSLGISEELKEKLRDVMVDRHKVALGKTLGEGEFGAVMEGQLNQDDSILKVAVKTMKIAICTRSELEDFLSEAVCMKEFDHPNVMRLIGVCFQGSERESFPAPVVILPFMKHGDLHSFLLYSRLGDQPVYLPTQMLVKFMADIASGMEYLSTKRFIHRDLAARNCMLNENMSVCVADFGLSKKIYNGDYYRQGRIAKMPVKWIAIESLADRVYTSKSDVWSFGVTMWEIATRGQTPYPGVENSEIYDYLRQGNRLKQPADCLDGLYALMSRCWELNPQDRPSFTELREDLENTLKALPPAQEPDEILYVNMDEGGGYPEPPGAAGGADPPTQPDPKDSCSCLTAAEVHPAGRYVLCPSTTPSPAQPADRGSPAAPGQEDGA

[21] = test system: ERK6; conditions: ref Gao et al. [42], cited from earlier work
[22] = test system: CHUK; conditions: ref Gao et al. [42], cited from earlier work
[23] = test system: DAPK3; conditions: ref Gao et al. [42], cited from earlier work
[24] = molecular target: T2, FRK (Homo sapiens, UniProt P42685); conditions: ref Gao et al. [42], cited from earlier work
T2 construct: purchased SignalChem F14-11G-10

[25] = test system: MELK; conditions: ref Gao et al. [42], cited from earlier work

T2 sequence (P42685 whole entry): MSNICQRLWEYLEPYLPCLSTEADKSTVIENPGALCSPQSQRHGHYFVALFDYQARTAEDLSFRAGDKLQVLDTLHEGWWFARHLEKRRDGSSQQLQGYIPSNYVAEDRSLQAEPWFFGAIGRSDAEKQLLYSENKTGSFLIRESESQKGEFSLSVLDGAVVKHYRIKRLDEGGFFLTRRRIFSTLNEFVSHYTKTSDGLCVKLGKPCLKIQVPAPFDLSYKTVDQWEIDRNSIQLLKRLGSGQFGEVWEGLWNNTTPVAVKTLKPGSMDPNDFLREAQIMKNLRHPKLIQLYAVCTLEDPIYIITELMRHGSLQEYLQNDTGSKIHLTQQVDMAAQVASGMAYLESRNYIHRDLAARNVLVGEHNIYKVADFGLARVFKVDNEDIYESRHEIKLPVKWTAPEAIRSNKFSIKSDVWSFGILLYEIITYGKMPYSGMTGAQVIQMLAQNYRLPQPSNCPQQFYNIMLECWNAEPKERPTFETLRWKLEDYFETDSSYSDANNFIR
BRK, sequence (Q13882 whole entry): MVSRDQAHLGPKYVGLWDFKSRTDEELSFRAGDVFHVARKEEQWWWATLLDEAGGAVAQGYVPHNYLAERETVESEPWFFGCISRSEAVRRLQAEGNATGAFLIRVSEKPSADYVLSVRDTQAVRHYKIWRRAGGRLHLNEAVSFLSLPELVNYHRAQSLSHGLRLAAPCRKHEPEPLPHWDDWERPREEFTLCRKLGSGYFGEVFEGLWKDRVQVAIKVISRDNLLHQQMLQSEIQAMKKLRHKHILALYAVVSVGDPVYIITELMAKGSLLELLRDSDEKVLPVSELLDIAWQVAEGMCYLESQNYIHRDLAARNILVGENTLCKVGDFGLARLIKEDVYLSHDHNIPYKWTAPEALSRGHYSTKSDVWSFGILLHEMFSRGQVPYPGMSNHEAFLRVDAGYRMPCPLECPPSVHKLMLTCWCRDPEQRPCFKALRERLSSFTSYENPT
IGF1R, sequence (P08069 31-1367): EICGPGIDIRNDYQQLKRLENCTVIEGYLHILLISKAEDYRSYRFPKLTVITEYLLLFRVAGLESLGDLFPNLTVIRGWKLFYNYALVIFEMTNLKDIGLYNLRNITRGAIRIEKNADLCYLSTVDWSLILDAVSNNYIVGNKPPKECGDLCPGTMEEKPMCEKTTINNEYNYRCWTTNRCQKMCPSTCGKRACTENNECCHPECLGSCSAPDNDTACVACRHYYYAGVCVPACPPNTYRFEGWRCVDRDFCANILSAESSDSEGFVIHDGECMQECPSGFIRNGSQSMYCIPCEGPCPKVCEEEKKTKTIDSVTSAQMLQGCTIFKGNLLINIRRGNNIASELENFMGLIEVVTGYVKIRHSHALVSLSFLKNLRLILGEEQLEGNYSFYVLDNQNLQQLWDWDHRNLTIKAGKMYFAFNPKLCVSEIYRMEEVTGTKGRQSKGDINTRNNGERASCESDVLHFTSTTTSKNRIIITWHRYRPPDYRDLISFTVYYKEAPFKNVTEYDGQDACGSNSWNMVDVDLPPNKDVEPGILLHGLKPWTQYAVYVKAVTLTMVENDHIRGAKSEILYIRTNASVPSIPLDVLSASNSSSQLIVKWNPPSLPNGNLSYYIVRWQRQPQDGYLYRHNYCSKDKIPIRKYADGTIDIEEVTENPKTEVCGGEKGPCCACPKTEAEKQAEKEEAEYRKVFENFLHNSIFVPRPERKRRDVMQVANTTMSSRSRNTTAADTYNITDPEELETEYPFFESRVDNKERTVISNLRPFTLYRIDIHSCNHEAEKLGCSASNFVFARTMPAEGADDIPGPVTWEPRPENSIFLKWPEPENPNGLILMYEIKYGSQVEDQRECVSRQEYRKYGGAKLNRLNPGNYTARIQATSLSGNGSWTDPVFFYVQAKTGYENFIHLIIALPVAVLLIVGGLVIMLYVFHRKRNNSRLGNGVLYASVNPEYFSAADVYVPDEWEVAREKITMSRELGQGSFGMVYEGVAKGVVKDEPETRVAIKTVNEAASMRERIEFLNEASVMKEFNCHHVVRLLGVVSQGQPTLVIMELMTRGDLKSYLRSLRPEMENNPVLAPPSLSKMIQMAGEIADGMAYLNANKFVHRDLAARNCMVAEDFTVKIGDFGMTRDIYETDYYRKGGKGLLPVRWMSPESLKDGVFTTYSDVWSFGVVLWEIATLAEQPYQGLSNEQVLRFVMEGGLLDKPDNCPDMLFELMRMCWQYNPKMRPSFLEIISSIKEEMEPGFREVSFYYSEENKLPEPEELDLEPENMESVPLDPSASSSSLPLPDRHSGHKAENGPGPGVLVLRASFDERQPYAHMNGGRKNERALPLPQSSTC

## COc1cc2nccc(Oc3ccc(NC(=O)Nc4cc(C)on4)c(Cl)c3)c2cc1OC [TIVOZANIB, Tivozanib]
[1]; 1 µM
  Gao et al. % of activity remaining at 1 µM: 107%
[1]; 10 µM
  Gao et al. % of activity remaining at 10 µM: 105%
[2]; 1 µM
  Gao et al. % of activity remaining at 1 µM: 105%
[2]; 10 µM
  Gao et al. % of activity remaining at 10 µM: 64%
[3]; 1 µM
  Gao et al. % of activity remaining at 1 µM: 76%
[3]; 10 µM
  Gao et al. % of activity remaining at 10 µM: 51%
[4]; 1 µM
  Gao et al. % of activity remaining at 1 µM: 97%
[4]; 10 µM
  Gao et al. % of activity remaining at 10 µM: 108%
[5]; 1 µM
  Gao et al. % of activity remaining at 1 µM: 91%
[5]; 10 µM
  Gao et al. % of activity remaining at 10 µM: 52%
[6]; 1 µM
  Gao et al. % of activity remaining at 1 µM: 83%
[6]; 10 µM
  Gao et al. % of activity remaining at 10 µM: 38%
[7]
  Gao et al. % of activity remaining at 10 µM: 75%
[8]; 1 µM
  Gao et al. % of activity remaining at 1 µM: 85%
[8]; 10 µM
  Gao et al. % of activity remaining at 10 µM: 47%
[9]; 1 µM
  Gao et al. % of activity remaining at 1 µM: 2%
[9]; 10 µM
  Gao et al. % of activity remaining at 10 µM: -1%
[10]; 1 µM
  Gao et al. % of activity remaining at 1 µM: 95%
[10]; 10 µM
  Gao et al. % of activity remaining at 10 µM: 86%
[11]; 1 µM
  Gao et al. % of activity remaining at 1 µM: 99%
[11]; 10 µM
  Gao et al. % of activity remaining at 10 µM: 70%
[12]
  Gao et al. % of activity remaining at 10 µM: 73%
[13]; 1 µM
  Gao et al. % of activity remaining at 1 µM: 104%
[13]; 10 µM
  Gao et al. % of activity remaining at 10 µM: 93%
[14]; 1 µM
  Gao et al. % of activity remaining at 1 µM: 24%
[14]; 10 µM
  Gao et al. % of activity remaining at 10 µM: 16%
[15]; 1 µM
  Gao et al. % of activity remaining at 1 µM: 109%
[15]; 10 µM
  Gao et al. % of activity remaining at 10 µM: 110%
[16]; 1 µM
  Gao et al. % of activity remaining at 1 µM: 114%
[16]; 10 µM
  Gao et al. % of activity remaining at 10 µM: 97%
[17]; 1 µM
  Gao et al. % of activity remaining at 1 µM: 107%
[17]; 10 µM
  Gao et al. % of activity remaining at 10 µM: 123%
[18]
  Gao et al. % of activity remaining at 1 µM: 135%
[19]; 1 µM
  Gao et al. % of activity remaining at 1 µM: 97%
[19]; 10 µM
  Gao et al. % of activity remaining at 10 µM: 101%
[20]; 1 µM
  Gao et al. % of activity remaining at 1 µM: 12%
[20]; 10 µM
  Gao et al. % of activity remaining at 10 µM: 10%
[21]; 1 µM
  Gao et al. % of activity remaining at 1 µM: 100%
[21]; 10 µM
  Gao et al. % of activity remaining at 10 µM: 94%
[22]; 1 µM
  Gao et al. % of activity remaining at 1 µM: 91%
[22]; 10 µM
  Gao et al. % of activity remaining at 10 µM: 114%
[23]; 1 µM
  Gao et al. % of activity remaining at 1 µM: 82%
[23]; 10 µM
  Gao et al. % of activity remaining at 10 µM: 90%
[24]; 1 µM
  Gao et al. % of activity remaining at 1 µM: 2%
[24]; 10 µM
  Gao et al. % of activity remaining at 10 µM: -3%
[25]; 1 µM
  Gao et al. % of activity remaining at 1 µM: 91%
[25]; 10 µM
  Gao et al. % of activity remaining at 10 µM: 80%
